How the values were obtained:
[1] = phase-1 clinical trial, oral PK in humans; assay type: in vivo; settings: human, plasma; calculated from AUCoral at 9 mg oral dose in a phase-1 study and fp 0.0172; read-out: observed CLint in humans (converted)
[2] = PK study in rats (intravenous and oral); assay type: in vivo; settings: for Tmax: median (range)
Procedure: Sprague–Dawley male rats were purchased from Charles River Japan, Inc., and were used for the PK study after 8 days of an acclimatization period. Rats were 8 weeks old when lenvatinib was dosed and the body weight range was 0.28–0.31 (kg). Rats were fasted a day before the PK study and feeding was resumed 4 h postdose. Dosing solution of lenvatinib used in the rat PK study was the same as that in the mice PK study, and the dose levels were 3 mg/kg for the intravenous administration via femoral vein, and 3, 10, and 30 mg/kg for the oral administration by gastric gavage (n = 4/dose). Approximately 0.25 mL of blood samples were obtained from the jugular vein using heparinized syringes at predose, and at 5, 15 and 30 min, and 1, 2, 4, 6, 8, 12 and 24 h postdose. Plasma sample preparation and sample storage were the same as those in the mice PK study.
PK parameters of lenvatinib were estimated by model independent analysis using a WinNonlin program (Version 4.1, Pharsight Corporation, Mountain View, CA). The time to reach the maximum plasma concentration (Tmax) and the maximum plasma concentration (Cmax) values were obtained directly from the plasma concentration data. Terminal half-life (T1/2) was calculated by ln2/ke, where ke is the slope of the regression line that fits the portion of the terminal phase (at least three time points) in the log-linear concentration–time curve. AUC0–t and AUMC0–t, the area under the concentration–time curves and the area under the first moment curve, from time = zero to time = t, respectively, were calculated using the lenvatinib concentrations in plasma by the linear/log trapezoidal method. AUC0–inf was calculated by AUC0–t + Ct/ke, and AUMC0–inf was AUMC0–t + Ct × t/ke + Ct/(ke)^2, where Ct is the last measurable concentration at time = t. The plasma concentration at time zero for the intravenous dose was extrapolated, while zero was used for the oral doses. Mean residence time (MRT), total plasma clearance (CLtot) and the volume of distribution at steady state (Vdss) were calculated by AUMC0–inf/AUC0–inf, Dose/AUC0–inf and CLtot × MRT, respectively. Oral bioavailability (F) was estimated by comparing dose-normalized AUC0–inf after oral (AUC0–inf.po) and intravenous (AUC0–inf.iv) administration as follows: F (%) = (AUC0–inf.po/AUC0–inf.iv) × 100.

[3] = Stability of lenvatinib in rat plasma and processed samples; assay type: physicochemical, rats; settings: for Processed sample stability, mean percentage bias from the theoretical values: processed rat plasma samples, 4 °C, 7 days
Procedure: Calibration samples and QC samples for the reproducibility assessment were prepared by spiking 0.05 mL of the working standard solutions to blank plasma (0.05 mL), and QC samples for the stability assessment were prepared by fortifying 0.05 mL of the solution to 1.5 mL of bank plasma. Lenvatinib concentrations in plasma were 0.005, 0.01, 0.03, 0.1, 0.3, 1, 3, 10, 30, and 100 μg/mL for the calibration samples, and were 0.005, 0.01, 1, and 100 μg/mL for the QC samples for reproducibility assessment. Lenvatinib concentrations of QC samples for the stability assessment were 0.01, 1, and 80 μg/mL.
The developed method for the determination of lenvatinib concentrations in plasma was validated and the following validation parameters including linearity, selectivity, intra- and inter-batch reproducibility, extraction recovery, and stability were evaluated in accordance with the bioanalytical guidelines by United States Food and Drug Administration (US-FDA)[7]. The peak height ratios of lenvatinib to the IS of calibration samples were plotted against the corresponding nominal concentrations of lenvatinib. The calibration curve was prepared by the least square method with 1/(concentration)^2 as the weighting factor. In the linearity assessment, accuracy of each calibration sample was determined to ensure that relative error (RE) at each concentration was within ± 15% (within ± 20% at the LLOQ). […] Intra-batch accuracy and precision were evaluated using QC samples at the four concentrations, LLOQ, low QC (LQC), mid QC (MQC), and ULOQ. […] Inter-batch accuracy and precision were evaluated by testing a single sample at each concentration across five batches (n = 5 in total). […] Extraction recoveries of lenvatinib and the IS from plasma samples of the four species were evaluated. The recoveries of lenvatinib at the low, mid, and high QC levels (triplicates per concentration), and that of the IS (0.5 μg/mL) were determined. […] Stability of lenvatinib in plasma and processed samples was assessed at the low and high QC levels. Lenvatinib concentrations in samples after storage were compared to the theoretical concentrations and RE values were calculated. […] Freeze–thaw stability in plasma was evaluated up to three freeze–thaw cycles and frozen stability in plasma was evaluated at − 15 °C or below for 4 weeks (mice, rats, and dogs) or 6 weeks (monkeys). Stability in processed samples was assessed at 4 °C for 7 days. Stability of lenvatinib in the standard solutions was evaluated for the stock (100 μg/mL) and the working solution (5 ng/mL). The stability of the IS solution (0.5 μg/mL) was also assessed. […]

[4] = male, Sprague-Dawley, rat, plasma, intravenous 3 mg/kg
[5] = male, Sprague-Dawley, rat, plasma, oral 3 mg/kg
[6] = male, Sprague-Dawley, rat, plasma, oral 10 mg/kg
[7] = male, Sprague-Dawley, rat, plasma, oral 30 mg/kg

## COc1cc2nccc(Oc3ccc(NC(=O)NC4CC4)c(Cl)c3)c2cc1C(N)=O [lenvatinib, Lenvatinib]
[1]
  CLint scaled: 75.1 mL/min/kg
[2]; estimated from oral PK, Fa and Fg assumed unity, BW 0.2 kg
  CLint (hepatic intrinsic clearance): 1440 mL/h
[2]; [4]
  AUC(0-inf): 30100 ± 1330 ng·h/mL
  MRT: 3.93 ± 0.19 h
[2]; male, Sprague-Dawley, rat, plasma, intravenous 3 mg/kg, extrapolated
  C0: 16000 ± 416 ng/mL
[2]; male, Sprague-Dawley, rat, plasma, intravenous 3 mg/kg, read-out: CLtot (converted)
  clearance: 1.67 mL/min/kg
[2]; male, Sprague-Dawley, rat, plasma, intravenous 3 mg/kg, read-out: Vdss
  Vd: 0.392 ± 0.0099 L/kg
[2]; male, Sprague-Dawley, rat, plasma, iv, 3 mg/kg, intravenous 3 mg/kg
  half-life: 3.65 ± 0.09 h
[2]; [5]
  AUC(0-inf): 20700 ± 3120 ng·h/mL
  Cmax: 6170 ± 1370 ng/mL
  MRT: 4.46 ± 0.16 h
  Tmax: 0.5 h
[2]; male, Sprague-Dawley, rat, plasma, oral 3 mg/kg vs intravenous 3 mg/kg, read-out: F (oral bioavailability)
  bioavailability: 68.7%
[2]; [6]
  AUC(0-inf): 78300 ± 6580 ng·h/mL
  Cmax: 16600 ± 1240 ng/mL
  MRT: 6.31 ± 0.53 h
  Tmax: 0.5 h
[2]; [7]
  AUC(0-inf): 146000 ± 18500 ng·h/mL
  Cmax: 23200 ± 4770 ng/mL
  MRT: 6.86 ± 1.02 h
  Tmax: 1 h
[2]; male, Sprague-Dawley, rat, plasma, po, 3 mg/kg, oral 3 mg/kg
  half-life: 3.61 ± 0.21 h
[2]; male, Sprague-Dawley, rat, plasma, po, 10 mg/kg, oral 10 mg/kg
  half-life: 5.27 ± 0.33 h
[2]; male, Sprague-Dawley, rat, plasma, po, 30 mg/kg, across 3, 10, and 30 mg/kg
  half-life: 3.61 to 5.27 h
[2]; male, Sprague-Dawley, rat, plasma, po, 30 mg/kg, oral 30 mg/kg
  half-life: 4.95 ± 0.77 h
[3]; HQC 80 μg/mL
  Processed sample stability, mean percentage bias from the theoretical values: 0.3%
[3]; MQC 1 μg/mL
  Processed sample stability, mean percentage bias from the theoretical values: 0.2%
[3]; rat plasma, 3 cycles, MQC 1 μg/mL
  Freeze/thaw stability, mean percentage bias from the theoretical values: 3.6%
[3]; rat plasma, below − 15 °C, 4 weeks, LQC 0.01 μg/mL
  Frozen stability, mean percentage bias from the theoretical values: 1.0%
